# Molecular target: T1, thrombin (THR, FIIα) (Homo sapiens, UniProt P00734)
# T1 construct: gene F2; human recombinant THR
# Experiment: chromogenic substrate S-2238 assay; affinity ultrafiltration LC-MS hit
# Type: biochemical
row,IC50 [µM],SMILES
1,358,"CC(=O)OC(CCc1ccc(O)c(O)c1)CC(CCc1ccc(O)c(O)c1)OC(C)=O (stereo not drawn) [C7, 4,4′-[3,5-bis(acetyloxy)-1,7-heptanediyl]bis-1,2-benzenediol]"
2,9.92,"CC(=O)OC(CCc1ccc(O)cc1)CC(O)CCc1ccc(O)cc1 (stereo not drawn) [C8, 3-acetate-1,7-bis(4-hydroxyphenyl)-3,5-heptanediol]"
3,654,"CC(=O)OC(CCc1ccc(O)cc1)CC(CCc1ccc(O)c(O)c1)OC(C)=O (stereo not drawn) [C11, 4-[3,5-bis(acetyloxy)-7-(4-hydroxyphenyl)heptyl]-1,2-benzenediol]"

# Source: publication PMC8703108, “Identifying of Anti-Thrombin Active Components From Curcumae Rhizoma by Affinity-Ultrafiltration Coupled With UPLC-Q-Exactive Orbitrap/MS” (Frontiers in Pharmacology, 2021)
